#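 The compound was tested at five concentrations on cells cultured in 96-well plates, with a 48-hour exposure period. At the GI50, growth is halved. TGI: total growth inhibition.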
# How the values were obtained:
# Assay in all cases: NCI-60 cell line screen, 48 h
# M14 melanoma = tested on: M14 melanoma
# RPMI-8226 leukemia = tested on: RPMI-8226 leukemia
# OVCAR-3 ovarian = tested on: OVCAR-3 ovarian
# SK-OV-3 ovarian = tested on: SK-OV-3 ovarian
# HCT-15 colon = tested on: HCT-15 colon
# BT-549 breast = tested on: BT-549 breast
# OVCAR-5 ovarian = tested on: OVCAR-5 ovarian
# U251 CNS = tested on: U251 CNS
# UACC-257 melanoma = tested on: UACC-257 melanoma
# UACC-62 melanoma = tested on: UACC-62 melanoma
# SN12C renal = tested on: SN12C renal
# KM12 colon = tested on: KM12 colon
# HCT-116 colon = tested on: HCT-116 colon
# PC-3 prostate = tested on: PC-3 prostate
# SK-MEL-28 melanoma = tested on: SK-MEL-28 melanoma
# UO-31 renal = tested on: UO-31 renal
# HCC-2998 colon = tested on: HCC-2998 colon
# MALME-3M melanoma = tested on: MALME-3M melanoma
# OVCAR-8 ovarian = tested on: OVCAR-8 ovarian
# NCI-H226 lung = tested on: NCI-H226 lung
# COLO 205 colon = tested on: COLO 205 colon
# OVCAR-4 ovarian = tested on: OVCAR-4 ovarian
# CAKI-1 renal = tested on: CAKI-1 renal
# LOX IMVI melanoma = tested on: LOX IMVI melanoma
# K-562 leukemia = tested on: K-562 leukemia
# MDA-MB-231 breast = tested on: MDA-MB-231 breast
# HT29 colon = tested on: HT29 colon
# SK-MEL-2 melanoma = tested on: SK-MEL-2 melanoma
# SK-MEL-5 melanoma = tested on: SK-MEL-5 melanoma
# A549 NSCLC = tested on: A549 NSCLC
# CCRF-CEM leukemia = tested on: CCRF-CEM leukemia
# SF-268 CNS = tested on: SF-268 CNS
# SNB-75 CNS = tested on: SNB-75 CNS
# ACHN renal = tested on: ACHN renal
# HOP-62 NSCLC = tested on: HOP-62 NSCLC
# NCI-H460 lung = tested on: NCI-H460 lung
# SNB-19 CNS = tested on: SNB-19 CNS
# EKVX NSCLC = tested on: EKVX NSCLC
# SR leukemia = tested on: SR leukemia
# HOP-92 NSCLC = tested on: HOP-92 NSCLC
# RXF 393 renal = tested on: RXF 393 renal
# HS 578T breast = tested on: HS 578T breast
# MOLT-4 leukemia = tested on: MOLT-4 leukemia
# SF-539 CNS = tested on: SF-539 CNS
# DU-145 prostate = tested on: DU-145 prostate
# MCF7 breast = tested on: MCF7 breast
# 786-0 renal = tested on: 786-0 renal
# T-47D breast = tested on: T-47D breast
# NCI-H522 lung = tested on: NCI-H522 lung
# TK-10 renal = tested on: TK-10 renal
# A498 renal = tested on: A498 renal
# NCI/ADR-RES ovarian = tested on: NCI/ADR-RES ovarian
# SF-295 CNS = tested on: SF-295 CNS
# SW-620 colon = tested on: SW-620 colon
# HL-60(TB) leukemia = tested on: HL-60(TB) leukemia
# IGROV1 ovarian = tested on: IGROV1 ovarian
# NCI-H23 lung = tested on: NCI-H23 lung
smiles,measurement,setting,value
Cc1cc(Cl)cc(NS(=O)(=O)c2ccc(-c3cnc(C4CC4)o3)cc2)c1,GI50,M14 melanoma,351 nM
same,TGI,M14 melanoma,14200 nM
same,GI50,RPMI-8226 leukemia,232 nM
same,TGI,RPMI-8226 leukemia,4750 nM
same,GI50,OVCAR-3 ovarian,122 nM
same,TGI,OVCAR-3 ovarian,3440 nM
same,GI50,SK-OV-3 ovarian,783 nM
same,TGI,SK-OV-3 ovarian,22600 nM
same,GI50,HCT-15 colon,106 nM
same,TGI,HCT-15 colon,12100 nM
same,GI50,BT-549 breast,1630 nM
same,TGI,BT-549 breast,16400 nM
same,GI50,OVCAR-5 ovarian,565 nM
same,TGI,OVCAR-5 ovarian,15500 nM
same,GI50,U251 CNS,436 nM
same,TGI,U251 CNS,15600 nM
same,GI50,UACC-257 melanoma,3180 nM
same,TGI,UACC-257 melanoma,20800 nM
same,GI50,UACC-62 melanoma,174 nM
same,TGI,UACC-62 melanoma,12000 nM
same,GI50,SN12C renal,986 nM
same,TGI,SN12C renal,13900 nM
same,GI50,KM12 colon,303 nM
same,TGI,KM12 colon,13300 nM
same,GI50,HCT-116 colon,347 nM
same,TGI,HCT-116 colon,11100 nM
same,GI50,PC-3 prostate,205 nM
same,TGI,PC-3 prostate,11900 nM
same,GI50,SK-MEL-28 melanoma,1280 nM
same,TGI,SK-MEL-28 melanoma,19500 nM
same,GI50,UO-31 renal,798 nM
same,TGI,UO-31 renal,14800 nM
same,GI50,HCC-2998 colon,745 nM
same,TGI,HCC-2998 colon,12600 nM
same,GI50,MALME-3M melanoma,712 nM
same,TGI,MALME-3M melanoma,22200 nM
same,GI50,OVCAR-8 ovarian,716 nM
same,TGI,OVCAR-8 ovarian,18000 nM
same,GI50,NCI-H226 lung,454 nM
same,TGI,NCI-H226 lung,9890 nM
same,GI50,COLO 205 colon,322 nM
same,TGI,COLO 205 colon,2710 nM
same,GI50,OVCAR-4 ovarian,1070 nM
same,TGI,OVCAR-4 ovarian,19800 nM
same,GI50,CAKI-1 renal,125 nM
same,TGI,CAKI-1 renal,14500 nM
same,GI50,LOX IMVI melanoma,279 nM
same,TGI,LOX IMVI melanoma,11100 nM
same,GI50,K-562 leukemia,51 nM
same,TGI,K-562 leukemia,> 33200 nM
same,GI50,MDA-MB-231 breast,656 nM
same,TGI,MDA-MB-231 breast,14500 nM
same,GI50,HT29 colon,313 nM
same,TGI,HT29 colon,12100 nM
same,GI50,SK-MEL-2 melanoma,1050 nM
same,TGI,SK-MEL-2 melanoma,20900 nM
same,GI50,SK-MEL-5 melanoma,322 nM
same,TGI,SK-MEL-5 melanoma,6980 nM
same,GI50,A549 NSCLC,565 nM
same,TGI,A549 NSCLC,16600 nM
same,GI50,CCRF-CEM leukemia,172 nM
same,TGI,CCRF-CEM leukemia,17700 nM
same,GI50,SF-268 CNS,1270 nM
same,TGI,SF-268 CNS,16500 nM
same,GI50,SNB-75 CNS,128 nM
same,TGI,SNB-75 CNS,1700 nM
same,GI50,ACHN renal,758 nM
same,TGI,ACHN renal,14100 nM
same,GI50,HOP-62 NSCLC,376 nM
same,TGI,HOP-62 NSCLC,16400 nM
same,GI50,NCI-H460 lung,264 nM
same,TGI,NCI-H460 lung,7220 nM
same,GI50,SNB-19 CNS,412 nM
same,TGI,SNB-19 CNS,15600 nM
same,GI50,EKVX NSCLC,499 nM
same,TGI,EKVX NSCLC,16700 nM
same,GI50,SR leukemia,46.5 nM
same,TGI,SR leukemia,19100 nM
same,GI50,HOP-92 NSCLC,151 nM
same,TGI,HOP-92 NSCLC,4280 nM
same,GI50,RXF 393 renal,160 nM
same,TGI,RXF 393 renal,556 nM
same,GI50,HS 578T breast,300 nM
same,TGI,HS 578T breast,14100 nM
same,GI50,MOLT-4 leukemia,451 nM
same,TGI,MOLT-4 leukemia,31100 nM
same,GI50,SF-539 CNS,270 nM
same,TGI,SF-539 CNS,3200 nM
same,GI50,DU-145 prostate,374 nM
same,TGI,DU-145 prostate,15100 nM
same,GI50,MCF7 breast,70.2 nM
same,TGI,MCF7 breast,13800 nM
same,GI50,786-0 renal,1060 nM
same,TGI,786-0 renal,15900 nM
same,GI50,T-47D breast,379 nM
same,TGI,T-47D breast,26200 nM
same,GI50,NCI-H522 lung,465 nM
same,TGI,NCI-H522 lung,14300 nM
same,GI50,TK-10 renal,6220 nM
same,TGI,TK-10 renal,23000 nM
same,GI50,A498 renal,72.6 nM
same,TGI,A498 renal,1280 nM
same,GI50,NCI/ADR-RES ovarian,161 nM
same,TGI,NCI/ADR-RES ovarian,8910 nM
same,GI50,SF-295 CNS,146 nM
same,TGI,SF-295 CNS,11000 nM
same,GI50,SW-620 colon,218 nM
same,TGI,SW-620 colon,15500 nM
same,GI50,HL-60(TB) leukemia,156 nM
same,TGI,HL-60(TB) leukemia,2570 nM
same,GI50,IGROV1 ovarian,331 nM
same,TGI,IGROV1 ovarian,13500 nM
same,GI50,NCI-H23 lung,520 nM
same,TGI,NCI-H23 lung,13800 nM

# Source: PubChem BioAssay (NCI)
